# In patent US10294202B2, “Pyrrolidinones as herbicides” (FMC Corporation, priority 2013, dated 2019):
# Tests used:
# lambsquarters = experiment: Test E preemergence herbicide test; type: in vivo, Chenopodium album; parameters: key: 0 = no effect, 100 = complete control
# How it was run: (§1)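 Planted in silt loam; preemergence spray, non-phytotoxic solvent/surfactant formulation; greenhouse 21 d; visual score 0–100 vs controls.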
# oilseed rape = experiment: Test D pre-/postemergence herbicide test; type: in vivo, Brassica napus; details: Preemergence, scale 0 to 100 (0 no effect, 100 complete control)
# How it was run: (§2)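 Visual 0–100 ratings (0 = no effect, 100 = complete control) versus controls, made 7 to 21 days after treatment in a controlled growth environment. Test chemicals in surfactant-containing non-phytotoxic solvent were applied preemergence to silt loam-sown seeds and postemergence to plants 2–18 cm tall.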
# oat, wild = experiment: Test D pre-/postemergence herbicide test; type: in vivo, Avena fatua; details: Preemergence, scale 0 to 100 (0 no effect, 100 complete control)
# How it was run: as §2
# johnsongrass = experiment: Test E preemergence herbicide test; type: in vivo, Sorghum halepense; parameters: key: 0 = no effect, 100 = complete control
# How it was run: as §1
# pigweed, palmer = experiment: Test E preemergence herbicide test; type: in vivo, Amaranthus palmeri; parameters: key: 0 = no effect, 100 = complete control
# From the text: Seeds of plant species selected from corn (Zea mays), soybean (Glycine max), velvetleaf (Abutilon theophrasti), lambsquarters (Chenopodium album), wild poinsettia (Euphorbia heterophylla), pigweed, palmer (palmer pigweed, Amaranthus palmeri), waterhemp (common waterhemp, Amaranthus rudis), surinam grass (Brachiaria decumbens), crabgrass, large (large crabgrass, Digitaria sanguinalis), crabgrass, Brazil (Brazilian crabgrass, Digitaria horizontalis), panicum, fall (fall panicum, Panicum dichotomiflorum), foxtail, giant (giant foxtail, Setaria faberii), foxtail, green (green foxtail, Setaria viridis), goosegrass (Eleusine indica), johnsongrass (Sorghum halepense), ragweed (common ragweed, Ambrosia elatior), barnyardgrass (Echinochloa crus-galli), sandbur (southern sandbur, Cenchrus echinatus), arrowleaf […] rhombifolia), ryegrass, Italian (Italian ryegrass, Lolium multiflorum), dayflower, VA (Virginia dayflower, Commelina virginica), field bindweed (Convolvulus arvensis), morningglory (Ipomoea coccinea), nightshade (eastern black nightshade, Solanum ptycanthum), kochia (Kochia scoparia), nutsedge, yellow (yellow nutsedge, Cyperus esculentus), cocklebur (common cocklebur, Xanthium strumarium), smartweed (ladysthumb smartweed, Polygonum Persicaria) and beggarticks (hairy beggarticks, Bidens pilosa), were planted into a silt loam soil and treated preemergence with test chemicals formulated in a non-phytotoxic solvent mixture which included a surfactant. Treated plants and controls were maintained in a greenhouse for 21 days, after which time all species were compared to controls and visually evaluated. Plant response ratings, summarized in Table E, are based on a scale of 0 to 100 where 0 is no effect and 100 is complete control. A dash (-) response means no test result.
# barnyardgrass = experiment: Test F flood (paddy) test; type: in vivo, Echinochloa crus-galli; details: 21 d, scale 0-100
# How it was run: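 Pots of sterilized Tama silt loam (35:50:15 sand:silt:clay, 2.6% organic matter) were sown so crop and weeds reached the 2.0–2.5-leaf stage; greenhouse 30/27 °C, 16-h photoperiod. Pots flooded to 3 cm, compound applied into paddy water, depth maintained. Visual rating vs untreated controls after 21 d, 0–100 scale.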
Compound,"Plant response rating, Lambsquarters (lambsquarters; 31 g ai/ha)","Plant response rating, Lambsquarters (lambsquarters; 62 g ai/ha)","Plant response rating, Lambsquarters (lambsquarters; 125 g ai/ha)","Plant response rating, Lambsquarters (lambsquarters; 250 g ai/ha)","Plant response rating, Oilseed Rape (oilseed rape; 62 g ai/ha)","Plant response rating, Oilseed Rape (oilseed rape; 125 g ai/ha)","Plant response rating, Oilseed Rape (oilseed rape; 31 g ai/ha)","Plant response rating, Oilseed Rape (oilseed rape; 250 g ai/ha)","Plant response rating, Oat, Wild (oat, wild; 62 g ai/ha)","Plant response rating, Oat, Wild (oat, wild; 125 g ai/ha)","Plant response rating, Oat, Wild (oat, wild; 31 g ai/ha)","Plant response rating, Oat, Wild (oat, wild; 250 g ai/ha)","Plant response rating, Johnsongrass (johnsongrass; 31 g ai/ha)","Plant response rating, Johnsongrass (johnsongrass; 62 g ai/ha)","Plant response rating, Johnsongrass (johnsongrass; 125 g ai/ha)","Plant response rating, Johnsongrass (johnsongrass; 250 g ai/ha)","Plant response rating, Pigweed, Palmer (pigweed, palmer; 31 g ai/ha)","Plant response rating, Pigweed, Palmer (pigweed, palmer; 62 g ai/ha)","Plant response rating, Pigweed, Palmer (pigweed, palmer; 125 g ai/ha)","Plant response rating, Pigweed, Palmer (pigweed, palmer; 250 g ai/ha)",also measured
"O=C1NC[C@H](c2cccc(C(F)(F)F)c2)[C@H]1C(=O)Nc1ccccc1F [Compound 204, (3R,4S)—N-(2-fluorophenyl)-2-oxo-4-[3-(trifluoromethyl)phenyl]-3-pyrrolidinecarboxamide]",98,98,90,65,0,0,0,0,25,60,0,40,0,0,35,40,0,0,0,0,"Plant response rating, Barnyardgrass (barnyardgrass; 125 g ai/ha): 100; Plant response rating, Barnyardgrass (barnyardgrass; 250 g ai/ha): 100; Plant response rating, Barnyardgrass (barnyardgrass; 500 g ai/ha): 100"
O=C1NC[C@H](c2cccc(C(F)(F)F)c2)[C@H]1C(=O)Nc1cccc(F)c1F [Compound 206],35,65,95,98,0,0,0,5,35,40,25,55,30,50,75,90,0,0,0,0,"Plant response rating, Barnyardgrass (barnyardgrass; 64 g ai/ha): 90; Plant response rating, Barnyardgrass (barnyardgrass; 125 g ai/ha): 100; Plant response rating, Barnyardgrass (barnyardgrass; 250 g ai/ha): 100; Plant response rating, Barnyardgrass (barnyardgrass; 500 g ai/ha): 100"
